Assay results from PMC12592400, “A unique inhibitor conformation selectively targets the DNA polymerase PolC of Gram-positive priority pathogens” (Nature Communications, 2025).
Several values for one entry are separate records, joined by “and”; a condition that tells them apart may be missing. Identical values can stand only once.

Columns and labels:
[1] = target: T1, E. faecium PolC^F1276L (exonuclease-inactivated) (Enterococcus faecium, UniProt A0A9X4B319, D429A/E431A/F1274L); experiment: Real-time DNA primer extension assay; assay type: biochemical; settings: for rate of activity (slope of fluorescence intensity change over time): Fig. 4b source data, F1276L
T1 sequence (A0A9X4B319 1-1450 D429A/E431A/F1274L): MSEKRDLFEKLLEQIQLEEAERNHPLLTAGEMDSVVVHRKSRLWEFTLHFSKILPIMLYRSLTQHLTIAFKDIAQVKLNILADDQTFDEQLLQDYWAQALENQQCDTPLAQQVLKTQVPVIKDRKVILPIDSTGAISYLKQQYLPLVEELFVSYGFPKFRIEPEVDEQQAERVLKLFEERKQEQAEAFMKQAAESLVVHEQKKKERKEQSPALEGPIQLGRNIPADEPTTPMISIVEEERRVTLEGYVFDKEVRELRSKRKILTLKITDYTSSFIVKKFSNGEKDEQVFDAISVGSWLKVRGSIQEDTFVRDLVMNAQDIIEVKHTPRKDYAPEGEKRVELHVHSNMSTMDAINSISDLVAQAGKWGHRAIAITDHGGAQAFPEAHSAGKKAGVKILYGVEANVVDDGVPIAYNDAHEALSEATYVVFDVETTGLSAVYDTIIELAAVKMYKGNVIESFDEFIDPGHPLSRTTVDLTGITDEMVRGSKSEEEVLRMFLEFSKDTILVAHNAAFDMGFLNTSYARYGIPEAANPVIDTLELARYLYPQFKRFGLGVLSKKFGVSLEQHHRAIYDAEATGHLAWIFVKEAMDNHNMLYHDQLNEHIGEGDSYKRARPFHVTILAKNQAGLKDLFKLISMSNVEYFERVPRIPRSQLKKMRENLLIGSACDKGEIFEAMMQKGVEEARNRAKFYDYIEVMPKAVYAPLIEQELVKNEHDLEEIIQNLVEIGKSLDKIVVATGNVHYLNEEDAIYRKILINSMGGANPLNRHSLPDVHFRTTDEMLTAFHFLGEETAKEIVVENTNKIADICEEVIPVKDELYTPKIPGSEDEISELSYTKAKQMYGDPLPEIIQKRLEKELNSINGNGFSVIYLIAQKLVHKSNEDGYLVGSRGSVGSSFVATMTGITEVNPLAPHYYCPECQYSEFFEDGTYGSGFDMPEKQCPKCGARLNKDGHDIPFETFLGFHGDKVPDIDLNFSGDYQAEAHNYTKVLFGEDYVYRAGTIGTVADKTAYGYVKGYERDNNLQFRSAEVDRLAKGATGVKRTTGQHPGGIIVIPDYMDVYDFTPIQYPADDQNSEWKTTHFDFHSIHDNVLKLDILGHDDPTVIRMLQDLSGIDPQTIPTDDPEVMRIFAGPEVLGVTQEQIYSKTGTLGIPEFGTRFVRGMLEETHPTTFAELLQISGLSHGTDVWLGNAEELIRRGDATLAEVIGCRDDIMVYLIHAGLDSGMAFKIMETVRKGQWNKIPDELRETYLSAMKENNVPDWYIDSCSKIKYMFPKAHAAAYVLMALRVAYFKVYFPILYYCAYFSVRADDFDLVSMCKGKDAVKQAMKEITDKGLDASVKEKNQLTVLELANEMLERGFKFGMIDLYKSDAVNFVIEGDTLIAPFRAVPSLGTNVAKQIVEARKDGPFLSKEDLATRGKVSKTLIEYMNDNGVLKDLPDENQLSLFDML
Text: (§1) The genes for PolC (locus_tag: MIBBHLJO_01574) and DnaE (locus_tag: MIBBHLJO_00911) from E. faecium ATCC 700221 were codon-optimized for expression in E. coli and synthesized in vector pET28b by Twist Bioscience (San Francisco, CA). Expression constructs for variant PolC proteins were created with QuikChange Site-Directed Mutagenesis (Agilent) with oligonucleotides listed in Supplementary Table 3. F1276L, F1276S, and A1281T were introduced to assess the effect of these mutations on inhibition by ACX compounds. Mutations D972A and D974A were introduced to inactivate the polymerase activity and mutations D431A and E433A were introduced to inactivate the exonuclease activity (Fig. 1d, Supplementary Fig. 1).
(§2) Polymerase activity was monitored in real-time[31],[32] with a 42-nt long 5’ carboxyfluorescein-labelled DNA oligonucleotide template strand (DNASP8_42) annealed to a 30-nt primer oligonucleotide (oMU014). Polymerase activity in this assay is monitored by measuring fluorescence quenching of the labelled DNA template as a result of primer extension by PolC (for details see Supplementary Fig. 1b, c). Both primers were HPLC purified. Primer extension assays were performed in Reaction Buffer (see Gel-based polymerase and exonuclease assays) supplemented with 0.5 mg/mL BSA, 0.05% Tween20 and 25 uM of each dNTP (SRB) in 384-well Black Round Bottom plates (Corning 4514). The polymerase was diluted in the SRB and incubated for at least 5 min in the presence of inhibitor or solvent, with a final solvent concentration of 1%. The reaction was initiated by the addition of an equal volume of DNA substrate in SRB as described below. Fluorescence emission data was collected with a BMG Labtech PHERAstar FSX reader for 30 min at room temperature.
(§3) Compounds were dispensed with an Echo acoustic liquid handler (Beckman Coulter). All compounds were dissolved to 1 mM and 10 mM stocks in 100% DMSO and transferred to Echo LDV or PP source plates (Labcyte, Inc., CA), then dispensed to 384-well plates with a Labcyte Echo550 or Echo650 acoustic dispenser at volumes of 2.5 to 100 nL per well. […] A Mantis microfluidic liquid dispenser (Formulatrix) was used to dispense 5 µL polymerase and 5 µL substrate DNA (individually diluted in SRB) per well. […] The final concentration of DNA was 70 nM.
(§4) Data were analysed and standard error of the means (SEM) determined in Prism 8.4.2 and 10.2.3 (GraphPad). Raw time-course polymerase activity was plotted against time, with SEM of triplicates determined. The rate of activity (represented by signal quenching) was determined during the first 8 min (linear stage) by calculating the slope of fluorescence intensity change (converted to a positive value) over time (in seconds). The slopes were then normalized to percentage activity (%); per ‘replicate range’, 100% activity was defined as polymerase activity in the absence of inhibitor (polymerase control), and 0% activity was determined in the absence of polymerase (DNA signal; negative control). The SEM was determined between ‘replicate ranges’. The IC50 was determined using the dose-response (inhibition) nonlinear regression ‘[Inhibitor] vs. response (three parameters)’ without constraints.

[2] = system: E. faecium PolC^F1276S (exonuclease-inactivated); experiment: Real-time DNA primer extension assay; assay type: biochemical, Enterococcus faecium; settings: versus wild-type PolC
Text: as §1, §2, §3, §4

Structure (SMILES)	IC50 [1] [µM]	rate of activity (slope of fluorescence intensity change over time) ([1]; inhibitor 4 uM)	rate of activity (slope of fluorescence intensity change over time) ([1]; inhibitor 5.75 uM)	rate of activity (slope of fluorescence intensity change over time) ([1]; inhibitor 8.8 uM)	rate of activity (slope of fluorescence intensity change over time) ([1]; inhibitor 20 uM)	rate of activity (slope of fluorescence intensity change over time) ([1]; inhibitor 30 uM)	rate of activity (slope of fluorescence intensity change over time) ([1]; inhibitor 45 uM)	increase in IC50 by the F1276S mutation [2] [fold]	rate of activity (slope of fluorescence intensity change over time) ([1]; inhibitor 67.5 uM)	rate of activity (slope of fluorescence intensity change over time) ([1]; inhibitor 100 uM)	rate of activity (slope of fluorescence intensity change over time) ([1]; inhibitor 150 uM)
O=c1[nH]c(NCc2ccc3c(c2)OC(F)(F)O3)nc2c(F)nn(CCO)c12 [ACX-801, 5-(((2,2-difluorobenzo[d][1,3]dioxol-5-yl)methyl)amino)-3-fluoro-1-(2-hydroxyethyl)-1,6-dihydro-7H-pyrazolo[4,3-d]pyrimidin-7-one]	> 225	29.6 and 27.7 and 30.1	28.5 and 26.4 and 28.8	26.7 and 28.0 and 26.2	25.3 and 26.0 and 26.9	26.3 and 26.7 and 25.0	25.4	> 8			
O=c1[nH]c(NCc2ccc(Cl)c(Cl)c2)nc2ncn(CCN3CCOCC3)c12 [IBZ, N^2-(3,4-dichlorobenzyl)-7-(2-[1-morpholinyl]ethyl)guanine]	> 225	28.2 and 29.1 and 29.0	29.9 and 30.4	26.3 and 30.0	26.8 and 26.3	27.4 and 27.1	25.1 and 26.5 and 24.8	> 48	23.8 and 26.5 and 24.8	24.9 and 23.0 and 25.8	23.2
